Results on 2 compounds are retold here after US20230042961A1, “FUNGICIDAL COMPOUNDS AND MIXTURES FOR FUNGAL CONTROL IN CEREALS” (Dow AgroSciences LLC, priority 2017, published 2023).

Molecules are shown by their SMILES.

The test system of assay [1] is Zymoseptoria tritici (SEPTTR). Briefly: Field assessment of leaf blotch of wheat (SEPTTR), 3 field trials. The assay is classed as in vivo, Zymoseptoria tritici on winter wheat (TRZAW). As to conditions: relative AUDPC, average of 3 field trials, with Agnique BP-420. From the text: (§1) Treatments consisted of the compound of Formula I and the compound of Formula II either using individually or as a two-way mixture with the compound of Formula I. The compound of Formula I was applied with Agnique BP-420 (50% w/w at 0.3% v/v) at 75 and 150 g ai/ha and the compound of Formula II was applied with Agnique BP-420 (50% w/w at 0.3% v/v) at 20, 40, and 60 g ai/ha. Commercial standards used in the studies were Fluxapyroxad (Imtrex), applied at 100 g ai/ha, and Metconazole+Fluxapyroxad (Librax), applied at 161 g ai/ha.
Field Assessment of Zymoseptoria tritici (SEPTTR) in Wheat:
Fungicidal treatments containing the compound of Formula I and the compound of Formula II, either individually or as a two way mixture, were assessed against leaf spot of wheat (SEPTTR) in three separate field trials. In the first trial, fungicidal treatments were applied at B37 (curative, 1.8% infection at application on L4) growth stage of winter wheat (TRZAW, Sy moisson variety) under naturally occurring infection with SEPTTR. The treatments were part of an experimental trial designed as a randomized complete block with four replications and a plot of approximately 2×4 m. Treatments were applied at water volume of 200 L/ha, using a backpack plot sprayer (BKPCKAIR, FLAT FAN nozzle) and pressurized at 250 kPa.
In the second trial, fungicidal treatments were applied twice at B32 (curative, 15% infection at application on L5) and B39 (16% infection at application on L4) growth stages of winter wheat (TRZAW, Riband variety) under naturally occurring infection with SEPTTR. The treatments were part of an experimental trial designed as a randomized complete block with four replications and a plot of approximately 1.5×2 m. Treatments were applied at water volume of 200 L/ha, using a backpack plot sprayer (BKPCKAIR, Flat fan nozzle) and pressurized at 180 kPa.
In the final trial, fungicidal treatments were applied twice at B32 (protective, 15% infection at application on L6) and B37 (12% infection at application on L5) growth stages of winter wheat (TRZAW, Smaragd variety) under naturally occurring infection with SEPTTR. […]
Disease severity (percentage of visual diseased foliage on whole plot or leaves) in both field trials was assessed at 7-9 weeks after application and was recorded following EPPO PP1/26 guideline prescriptions. Area under the disease progress curve (AUDPC) was calculated for each plot in both trials using the sets of recorded severity data. Relative AUDPC (% control based on AUDPC) was calculated as percent of the nontreated control. Final results for the control of leaf spot of wheat by the compound of Formula I, the compound of Formula II, and mixtures are reported as an average of the relative AUDPC calculated over all three field trials. […]

Assay [2] deals with Puccinia striiformis (PUCCST). Nature of the assay: Field assessment of yellow rust of wheat (PUCCST), 2 field trials. It counts as in vivo, Puccinia striiformis on wheat (TRZAW). As to conditions: relative AUDPC, average of 2 field trials, with Agnique BP-420.
Source text: as §1
Field Assessment of Puccinia striiformis (PUCCST) in Wheat:
Fungicidal treatments containing the compound of Formula I and the compound of Formula II, either individually or as a two way mixture, were assessed against yellow rust of wheat (PUCCST) in two separate field trials. In the first trial, fungicidal treatments were applied twice at B31-32 (early curative, 4% infection at application on L3) and B39 (16.3% infection at application on L3) growth stages of winter wheat (TRZAW, Fairplay variety) under naturally occurring infection with PUCCST. The treatments were part of an experimental trial designed as a randomized complete block with four replications and a plot of approximately 1×6 m. Treatments were applied at water volume of 200 L/ha, using a backpack plot sprayer (BKPCKENG, F110-015 Hardi (3) Flat fan nozzle) and pressurized at 200 kPa.
In the second trial, fungicidal treatments containing the compound of Formula I and the compound of Formula II, either individually or as a two way mixture, were applied twice at B32 (protectant, 0% infection on L3 at application) and B37 (early curative, 20% infection on L3 at application) growth stages of wheat (TRZAW, Torch variety) under naturally occurring infection with PUCCST. The treatment was part of an experimental trial designed as a randomized complete block with four replications and a plot of approximately 2×4 m. Treatments were applied at water volume of 200 L/ha, using a backpack precision plot sprayer (BKCKAIR, F110-03 Hypro (4) Flat fan nozzle) and pressurized at 210 kPa.
(§2) Disease severity (percentage of visual diseased foliage on whole plot or leaves) in both field trials was assessed at 4-7 weeks after application and was recorded following EPPO PP1/26 guideline prescriptions. Area under the disease progress curve (AUDPC) was calculated for each plot in both trials using the sets of recorded severity data. Relative AUDPC (% control based on AUDPC) was calculated as percent of the nontreated control. Final results for the control of yellow rust of wheat by the compound of Formula I, the compound of Formula II, and mixtures are reported as an average of the relative AUDPC calculated over both field trials. Statistical analysis was done according to ANOVA and Tukey's test (p=0.10).

Assay [3] relates to Puccinia recondita (PUCCRT). Briefly: Field assessment of brown rust of wheat (PUCCRT), 2 field trials. It counts as in vivo, Puccinia recondita on wheat (TRZAW). As to conditions: relative AUDPC, average of 2 field trials, with Agnique BP-420.
Source text: as §1
Field Assessment of Puccinia recondita (PUCCRT) in Wheat:
Fungicidal treatment containing the compound of Formula I and the compound of Formula II, either individually or as a two mixture, were assessed against brown rust of wheat (PUCCRT) in two separate field trials. In the first trial, fungicidal treatments were applied at B37-39 (protectant, approximately 0% infection at application) growth stage of wheat (TRZAW, MV Vanek variety) under natural infection of brown rust. The treatment was part of an experimental trial designed as a randomized complete block with four replications and a plot of approximately 2×3 m. Fungicidal treatments were applied at a water volume of 200 L/ha, using a backpack plot sprayer with a TEEJET QJ90-2XTT110 015 Nozzle.
In the second trial, fungicidal treatments containing the compound of Formula I and the compound of Formula II, either individually or as a two way mixture, were applied at B33 (curative, approximately 6.6% infection at application) growth stage of wheat (TRZAW, Miradoux variety) under natural infection of brown rust. The treatments were part of an experimental trial designed as a randomized complete block with four replications and a plot of approximately 2×3 m. Fungicidal treatments were applied at a water volume of 200 L/ha, using a backpack plot sprayer with a HARDI MD110-02 Nozzle.
as §2, with “5” for “4-7”, “brown” for “yellow”

In the case of `COc1ccnc(C(=O)N[C@@H](C)C(=O)O[C@@H](C)C(c2ccc(F)cc2)c2ccc(F)cc2)c1OC(C)=O` [Compound II, (S)-1,1-bis(4-fluorophenyl)propan-2-yl (3-acetoxy-4-methoxypicolinoyl)-L-alaninate], the entries for the “SEPTTR % Control” value in assay [1] (20 g ai/ha) and in assay [1] (40 g ai/ha) were 35.1% and 52.2%, respectively. Also, the “PUCCST % Control” value in assay [2] (40 g ai/ha) stood at 50.6%; in assay [2] (60 g ai/ha), 56.2%. For the same compound, the figures for the “PUCCRT % Control” value in assay [3] (20 g ai/ha) and in assay [3] (40 g ai/ha) were 45.4% and 64.7%, respectively.
As to `N#Cc1ccc(Oc2ccc(C(F)(F)C(O)(Cn3nc[nH]c3=S)c3ccc(F)cc3F)nc2)cc1` (stereo not drawn) [Compound I, 4-((6-(2-(2,4-difluorophenyl)-1,1-difluoro-2-hydroxy-3-(5-thioxo-4,5-dihydro-1H-1,2,4-triazol-1-yl)propyl)pyridin-3-yl)oxy)benzonitrile], the results for the “SEPTTR % Control” value in assay [1] (75 g ai/ha) and in assay [1] (150 g ai/ha) were 50.3% and 73.8%, respectively. Further, the “PUCCST % Control” value in assay [2] (75 g ai/ha) came to 83.4%; in assay [2] (150 g ai/ha), 87.7%. In addition, the “PUCCRT % Control” value is reported as 79.7% in assay [3] (75 g ai/ha) and 89.0% in assay [3] (150 g ai/ha).
